Our source for the % residual kinase activity and IC50 values is ChEMBL document CHEMBL4507319 (2021).

SMILES strings stand for the structures.

Assay [1] has as its target T1, Tyrosine-protein kinase TXK (Homo sapiens) (UniProt P42681).
T1 sequence (whole entry): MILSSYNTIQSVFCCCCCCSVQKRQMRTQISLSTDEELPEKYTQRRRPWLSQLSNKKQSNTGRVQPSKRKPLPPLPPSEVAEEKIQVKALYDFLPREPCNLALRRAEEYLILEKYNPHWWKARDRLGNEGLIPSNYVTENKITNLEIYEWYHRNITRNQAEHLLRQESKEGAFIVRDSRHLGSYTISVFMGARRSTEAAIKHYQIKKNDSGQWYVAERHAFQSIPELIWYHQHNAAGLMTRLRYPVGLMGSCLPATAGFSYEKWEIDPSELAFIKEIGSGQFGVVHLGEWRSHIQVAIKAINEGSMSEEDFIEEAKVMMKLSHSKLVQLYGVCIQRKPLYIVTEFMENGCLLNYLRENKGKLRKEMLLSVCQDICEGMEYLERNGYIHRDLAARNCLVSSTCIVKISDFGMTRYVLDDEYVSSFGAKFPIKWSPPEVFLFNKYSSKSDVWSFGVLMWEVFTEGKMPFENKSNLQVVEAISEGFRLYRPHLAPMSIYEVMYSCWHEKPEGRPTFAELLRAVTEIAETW
The assay is described as follows: Txk(h) Eurofins kinase panel. Particulars: Compound concentration 1.0 uM.

Assay [2] deals with Serine/threonine-protein kinase WNK3 (Homo sapiens) (UniProt Q9BYP7). The assay is described as follows: WNK3(h) Eurofins kinase panel. Particulars: Compound concentration 1.0 uM.
Chain of Serine/threonine-protein kinase WNK3 (Homo sapiens) (Q9BYP7 whole entry): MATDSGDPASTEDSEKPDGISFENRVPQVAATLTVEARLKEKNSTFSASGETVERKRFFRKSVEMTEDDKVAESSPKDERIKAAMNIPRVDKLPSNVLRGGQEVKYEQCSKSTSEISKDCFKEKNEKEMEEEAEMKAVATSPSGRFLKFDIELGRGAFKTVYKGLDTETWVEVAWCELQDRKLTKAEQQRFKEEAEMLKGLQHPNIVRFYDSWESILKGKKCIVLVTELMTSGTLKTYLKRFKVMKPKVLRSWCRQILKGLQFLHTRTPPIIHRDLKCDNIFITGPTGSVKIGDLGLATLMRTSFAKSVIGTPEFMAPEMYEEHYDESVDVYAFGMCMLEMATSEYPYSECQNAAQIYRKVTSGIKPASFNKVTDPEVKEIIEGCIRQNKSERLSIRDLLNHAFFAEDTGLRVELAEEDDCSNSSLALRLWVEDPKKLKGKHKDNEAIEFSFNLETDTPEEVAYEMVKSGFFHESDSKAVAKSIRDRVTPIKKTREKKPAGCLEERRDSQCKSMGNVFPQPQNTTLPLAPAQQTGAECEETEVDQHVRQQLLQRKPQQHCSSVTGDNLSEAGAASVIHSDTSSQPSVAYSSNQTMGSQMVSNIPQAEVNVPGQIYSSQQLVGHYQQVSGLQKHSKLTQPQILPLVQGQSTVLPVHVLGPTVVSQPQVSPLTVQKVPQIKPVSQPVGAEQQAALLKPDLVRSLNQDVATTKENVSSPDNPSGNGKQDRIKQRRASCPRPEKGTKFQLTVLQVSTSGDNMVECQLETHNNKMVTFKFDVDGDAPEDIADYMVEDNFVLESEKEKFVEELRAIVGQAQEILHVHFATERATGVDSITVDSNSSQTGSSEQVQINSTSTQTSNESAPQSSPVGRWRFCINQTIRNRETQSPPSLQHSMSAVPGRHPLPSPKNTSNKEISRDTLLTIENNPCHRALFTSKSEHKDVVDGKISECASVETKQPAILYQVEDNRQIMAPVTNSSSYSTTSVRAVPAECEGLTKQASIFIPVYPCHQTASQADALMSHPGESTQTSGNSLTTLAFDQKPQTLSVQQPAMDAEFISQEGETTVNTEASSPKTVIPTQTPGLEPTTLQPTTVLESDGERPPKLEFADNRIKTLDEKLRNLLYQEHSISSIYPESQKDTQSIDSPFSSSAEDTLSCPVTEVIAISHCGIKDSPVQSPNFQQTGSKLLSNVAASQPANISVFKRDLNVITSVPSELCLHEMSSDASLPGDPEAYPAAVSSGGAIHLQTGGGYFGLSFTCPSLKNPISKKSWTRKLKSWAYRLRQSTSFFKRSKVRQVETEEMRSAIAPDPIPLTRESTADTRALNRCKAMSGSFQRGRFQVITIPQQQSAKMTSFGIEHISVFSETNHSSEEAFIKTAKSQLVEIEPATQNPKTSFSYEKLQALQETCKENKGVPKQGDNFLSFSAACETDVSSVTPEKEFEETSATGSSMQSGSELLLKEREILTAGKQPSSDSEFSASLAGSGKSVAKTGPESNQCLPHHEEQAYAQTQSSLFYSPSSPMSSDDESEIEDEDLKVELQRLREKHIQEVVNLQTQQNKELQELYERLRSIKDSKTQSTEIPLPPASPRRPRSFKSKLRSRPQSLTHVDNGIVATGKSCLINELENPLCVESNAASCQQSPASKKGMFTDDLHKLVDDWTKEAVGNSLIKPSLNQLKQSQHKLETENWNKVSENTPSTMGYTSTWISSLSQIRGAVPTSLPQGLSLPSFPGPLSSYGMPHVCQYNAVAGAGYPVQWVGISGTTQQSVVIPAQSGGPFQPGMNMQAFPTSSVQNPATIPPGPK
Assay [3] deals with T2, Inhibitor of nuclear factor kappa-B kinase subunit epsilon (Homo sapiens) (UniProt Q14164).
T2 sequence (whole entry): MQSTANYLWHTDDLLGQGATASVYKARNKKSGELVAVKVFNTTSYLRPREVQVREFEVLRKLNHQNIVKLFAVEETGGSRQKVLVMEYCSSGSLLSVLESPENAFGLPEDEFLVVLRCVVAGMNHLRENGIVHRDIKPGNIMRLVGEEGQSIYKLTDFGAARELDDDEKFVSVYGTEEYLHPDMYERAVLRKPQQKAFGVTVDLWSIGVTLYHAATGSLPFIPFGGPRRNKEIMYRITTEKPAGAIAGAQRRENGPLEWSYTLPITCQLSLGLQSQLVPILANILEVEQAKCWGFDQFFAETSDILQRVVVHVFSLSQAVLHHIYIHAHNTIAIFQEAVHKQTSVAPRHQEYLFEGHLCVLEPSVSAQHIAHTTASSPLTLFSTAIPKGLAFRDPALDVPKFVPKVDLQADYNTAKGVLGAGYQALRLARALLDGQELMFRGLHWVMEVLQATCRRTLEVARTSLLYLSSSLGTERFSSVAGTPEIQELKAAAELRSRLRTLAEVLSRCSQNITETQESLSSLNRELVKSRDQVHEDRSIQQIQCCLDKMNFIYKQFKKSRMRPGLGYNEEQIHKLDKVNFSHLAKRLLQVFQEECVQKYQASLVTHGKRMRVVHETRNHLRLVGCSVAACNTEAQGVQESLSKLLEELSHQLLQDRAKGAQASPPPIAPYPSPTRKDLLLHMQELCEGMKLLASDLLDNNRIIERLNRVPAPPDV
Description: IKKepsilon(h) Eurofins kinase panel. Particulars: Compound concentration 1.0 uM.

The target in assay [4] is T3, Serine/threonine-protein kinase DCLK3 (Homo sapiens) (UniProt Q9C098).
T3 sequence (whole entry): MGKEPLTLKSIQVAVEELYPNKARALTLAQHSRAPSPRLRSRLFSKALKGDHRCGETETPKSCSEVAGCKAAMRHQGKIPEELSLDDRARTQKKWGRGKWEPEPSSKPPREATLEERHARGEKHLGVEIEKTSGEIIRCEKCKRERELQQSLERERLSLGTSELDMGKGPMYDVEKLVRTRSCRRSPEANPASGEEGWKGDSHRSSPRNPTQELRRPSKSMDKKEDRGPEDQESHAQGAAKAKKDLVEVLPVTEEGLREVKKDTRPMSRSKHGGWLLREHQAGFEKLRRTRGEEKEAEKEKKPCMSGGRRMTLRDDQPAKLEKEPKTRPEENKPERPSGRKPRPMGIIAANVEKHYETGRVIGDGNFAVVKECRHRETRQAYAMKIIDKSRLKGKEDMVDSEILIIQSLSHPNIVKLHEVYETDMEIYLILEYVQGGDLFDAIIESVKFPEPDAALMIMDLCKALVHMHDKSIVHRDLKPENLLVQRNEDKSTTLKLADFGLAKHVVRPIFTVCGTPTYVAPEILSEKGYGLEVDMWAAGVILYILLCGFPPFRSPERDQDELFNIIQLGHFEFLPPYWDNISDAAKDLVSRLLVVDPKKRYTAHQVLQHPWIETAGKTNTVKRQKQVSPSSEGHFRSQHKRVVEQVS
The assay is described as follows: DCAMKL3(h) Eurofins kinase panel. As to conditions: Compound concentration 1.0 uM.

For assay [5], the target named is CDK6/cyclin D3 (Homo sapiens) (UniProt P30281+Q00534). Description: CDK6/cyclinD3(h) Eurofins kinase panel. The format is protein-complex assay. Particulars: Compound concentration 1.0 uM.
The target in assay [6] is Serine/threonine-protein kinase VRK2 (Homo sapiens) (UniProt Q86Y07). The assay is described as follows: VRK2(h) Eurofins kinase panel. Particulars: Compound concentration 1.0 uM.
Chain of Serine/threonine-protein kinase VRK2 (Homo sapiens) (Q86Y07 whole entry): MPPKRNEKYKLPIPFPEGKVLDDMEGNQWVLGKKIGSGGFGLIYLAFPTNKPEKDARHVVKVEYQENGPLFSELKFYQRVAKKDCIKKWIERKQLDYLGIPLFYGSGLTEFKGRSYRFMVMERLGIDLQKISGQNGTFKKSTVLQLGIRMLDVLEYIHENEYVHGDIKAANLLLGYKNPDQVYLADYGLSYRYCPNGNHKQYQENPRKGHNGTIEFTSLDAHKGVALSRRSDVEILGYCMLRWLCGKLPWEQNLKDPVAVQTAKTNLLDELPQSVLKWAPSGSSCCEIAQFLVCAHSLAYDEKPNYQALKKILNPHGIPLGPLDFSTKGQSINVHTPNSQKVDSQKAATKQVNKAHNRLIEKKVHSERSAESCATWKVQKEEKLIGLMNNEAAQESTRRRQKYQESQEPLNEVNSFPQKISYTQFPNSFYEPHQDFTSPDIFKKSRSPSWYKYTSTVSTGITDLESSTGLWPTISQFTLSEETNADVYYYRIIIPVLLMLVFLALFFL
Assay [7] deals with Serine/threonine-protein kinase 24 (Homo sapiens, UniProt Q9Y6E0).
Chain of Serine/threonine-protein kinase 24 (Q9Y6E0 whole entry): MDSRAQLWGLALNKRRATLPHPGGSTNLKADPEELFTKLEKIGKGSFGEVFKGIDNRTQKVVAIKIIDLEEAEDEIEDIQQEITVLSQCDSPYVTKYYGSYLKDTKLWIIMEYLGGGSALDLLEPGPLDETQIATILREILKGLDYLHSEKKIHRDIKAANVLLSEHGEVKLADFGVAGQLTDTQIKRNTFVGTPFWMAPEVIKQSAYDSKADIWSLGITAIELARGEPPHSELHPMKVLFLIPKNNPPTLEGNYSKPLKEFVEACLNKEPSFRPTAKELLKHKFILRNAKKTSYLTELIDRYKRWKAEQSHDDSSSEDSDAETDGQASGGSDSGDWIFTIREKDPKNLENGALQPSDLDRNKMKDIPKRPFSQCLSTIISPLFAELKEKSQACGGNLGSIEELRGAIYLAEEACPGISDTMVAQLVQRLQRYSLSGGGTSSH
The target of assay [8] is CDK3/cyclin E (Homo sapiens) (UniProt P24864+O96020+Q00526). The assay is described as follows: CDK3/cyclinE(h) Eurofins kinase panel. It is filed as protein-complex assay. As to conditions: Compound concentration 1.0 uM.
Chain of CDK3/cyclin E (Homo sapiens) (O96020 whole entry, looked up): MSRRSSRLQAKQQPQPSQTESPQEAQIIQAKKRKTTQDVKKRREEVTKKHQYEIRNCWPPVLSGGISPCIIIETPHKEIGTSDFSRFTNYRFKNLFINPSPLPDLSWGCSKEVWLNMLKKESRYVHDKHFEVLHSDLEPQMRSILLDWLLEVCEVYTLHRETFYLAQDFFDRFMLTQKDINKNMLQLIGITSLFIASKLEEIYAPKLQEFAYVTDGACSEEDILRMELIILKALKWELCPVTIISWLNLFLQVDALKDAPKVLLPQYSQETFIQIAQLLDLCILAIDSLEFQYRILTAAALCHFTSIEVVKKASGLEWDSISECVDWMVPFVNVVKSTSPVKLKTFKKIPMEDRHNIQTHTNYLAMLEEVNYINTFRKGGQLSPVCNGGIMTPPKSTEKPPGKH
Chain of CDK3/cyclin E (Homo sapiens) (P24864 whole entry, looked up): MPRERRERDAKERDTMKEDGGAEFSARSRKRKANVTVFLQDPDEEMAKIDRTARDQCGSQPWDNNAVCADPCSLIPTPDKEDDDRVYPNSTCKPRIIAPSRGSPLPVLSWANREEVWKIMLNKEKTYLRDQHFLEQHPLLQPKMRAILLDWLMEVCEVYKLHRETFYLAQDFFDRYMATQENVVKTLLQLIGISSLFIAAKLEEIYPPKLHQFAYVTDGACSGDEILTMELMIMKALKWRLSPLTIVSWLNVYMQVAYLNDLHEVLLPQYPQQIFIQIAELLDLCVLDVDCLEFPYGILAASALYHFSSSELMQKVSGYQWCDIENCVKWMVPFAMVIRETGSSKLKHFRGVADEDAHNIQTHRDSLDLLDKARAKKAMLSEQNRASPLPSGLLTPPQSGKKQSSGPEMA
Chain of CDK3/cyclin E (Homo sapiens) (Q00526 whole entry, looked up): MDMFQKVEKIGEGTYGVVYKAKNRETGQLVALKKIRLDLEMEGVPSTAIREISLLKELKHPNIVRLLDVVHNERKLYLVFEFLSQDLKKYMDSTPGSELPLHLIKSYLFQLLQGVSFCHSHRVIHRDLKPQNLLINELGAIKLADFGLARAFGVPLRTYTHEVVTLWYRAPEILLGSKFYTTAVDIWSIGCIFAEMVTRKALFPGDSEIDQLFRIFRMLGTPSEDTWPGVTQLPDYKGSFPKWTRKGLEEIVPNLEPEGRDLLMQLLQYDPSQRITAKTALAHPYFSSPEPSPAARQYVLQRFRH
Assay [9] addresses Activated CDC42 kinase 1 (Homo sapiens) (UniProt Q07912). Description: ACK1(h) Eurofins kinase panel. As to conditions: Compound concentration 1.0 uM.
Assay [10] deals with Mitogen-activated protein kinase kinase kinase kinase 4 (Homo sapiens) (UniProt O95819). Description: MAP4K4(h) Eurofins kinase panel. Particulars: Compound concentration 1.0 uM.

Chain of Activated CDC42 kinase 1 (Homo sapiens) (Q07912 whole entry, looked up): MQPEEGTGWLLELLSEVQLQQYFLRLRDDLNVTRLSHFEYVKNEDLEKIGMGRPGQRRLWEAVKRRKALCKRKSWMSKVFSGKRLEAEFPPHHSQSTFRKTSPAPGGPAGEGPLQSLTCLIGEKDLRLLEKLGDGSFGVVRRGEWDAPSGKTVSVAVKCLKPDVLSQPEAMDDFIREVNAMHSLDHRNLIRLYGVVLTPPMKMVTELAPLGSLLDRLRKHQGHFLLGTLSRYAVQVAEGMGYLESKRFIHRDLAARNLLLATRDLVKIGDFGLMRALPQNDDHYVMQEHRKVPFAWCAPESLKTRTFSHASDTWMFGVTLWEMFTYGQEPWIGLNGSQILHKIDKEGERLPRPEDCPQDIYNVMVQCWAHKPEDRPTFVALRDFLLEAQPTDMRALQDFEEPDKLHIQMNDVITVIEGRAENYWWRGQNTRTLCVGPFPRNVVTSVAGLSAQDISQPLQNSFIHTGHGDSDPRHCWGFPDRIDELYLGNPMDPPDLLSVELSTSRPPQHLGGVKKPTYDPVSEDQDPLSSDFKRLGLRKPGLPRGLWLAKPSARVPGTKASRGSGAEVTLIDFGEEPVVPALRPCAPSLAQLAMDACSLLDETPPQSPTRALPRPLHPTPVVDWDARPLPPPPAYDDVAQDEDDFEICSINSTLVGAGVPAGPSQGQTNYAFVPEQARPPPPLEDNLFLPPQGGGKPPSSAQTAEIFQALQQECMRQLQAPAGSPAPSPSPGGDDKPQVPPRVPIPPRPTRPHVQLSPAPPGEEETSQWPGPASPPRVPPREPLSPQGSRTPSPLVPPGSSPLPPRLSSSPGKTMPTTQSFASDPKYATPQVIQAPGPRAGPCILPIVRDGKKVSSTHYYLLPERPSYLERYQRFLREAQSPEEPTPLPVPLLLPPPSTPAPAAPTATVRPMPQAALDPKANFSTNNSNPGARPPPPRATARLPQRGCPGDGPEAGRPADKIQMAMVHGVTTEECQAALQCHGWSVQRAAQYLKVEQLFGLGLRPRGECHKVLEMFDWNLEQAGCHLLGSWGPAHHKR

Consider `CCc1ccccc1C(=O)Nc1n[nH]c2c(C)c(F)c(C3C(C#N)=C(C)N(C)C(C)=C3C#N)cc12` [BAY-3827], for which the % residual kinase activity was 111% in assay [1]; 103% in assay [2]; 108% in [3]; 100% in assay [4]; 110% in assay [5]; 98% in assay [6]. Moreover, the % residual kinase activity in assay [8] is 100%; in assay [9], 94%; in assay [10], 91%. For the same molecule, inhibition in assay [7] was half-maximal at 94 nM (IC50).
